Experimental data reported in patent publication US11638712B2, “Bis(acetamidophenyl) guanidinophenylethylphosphonates for use in the prevention and/or treatment of PAR-related diseases” (Universiteit Antwerpen, priority 2016, dated 2023).

What was measured:
[1] = target: uPA (Homo sapiens, UniProt P00749); test: in vitro serine protease inhibition profile: uPA; format: biochemical
[2] = target: T1, thrombin (Homo sapiens, UniProt P00734); test: in vitro serine protease inhibition profile: thrombin; format: biochemical
T1 construct: panel of serine proteases: uPA, tPA, thrombin, plasmin, FXIIa

[3] = target: T2, plasmin (Homo sapiens, UniProt P00747); test: in vitro serine protease inhibition profile: plasmin; format: biochemical
T2 construct: panel of serine proteases: uPA, tPA, thrombin, plasmin, FXIIa

[4] = target: T3, cathepsinG (Homo sapiens, UniProt P08311); test: in vitro serine protease inhibition profile: cathepsinG; format: biochemical
T3 sequence (P08311 21-244): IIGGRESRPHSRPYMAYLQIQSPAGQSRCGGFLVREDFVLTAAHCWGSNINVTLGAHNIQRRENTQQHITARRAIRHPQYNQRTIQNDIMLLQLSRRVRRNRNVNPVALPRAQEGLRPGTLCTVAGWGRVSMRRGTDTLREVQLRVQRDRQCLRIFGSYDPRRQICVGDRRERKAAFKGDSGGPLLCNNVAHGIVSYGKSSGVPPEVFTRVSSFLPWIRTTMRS

[5] = target: T4, matriptase (Homo sapiens, UniProt Q9Y5Y6); test: in vitro serine protease inhibition profile: matriptase; format: biochemical
T4 sequence (Q9Y5Y6 1-855): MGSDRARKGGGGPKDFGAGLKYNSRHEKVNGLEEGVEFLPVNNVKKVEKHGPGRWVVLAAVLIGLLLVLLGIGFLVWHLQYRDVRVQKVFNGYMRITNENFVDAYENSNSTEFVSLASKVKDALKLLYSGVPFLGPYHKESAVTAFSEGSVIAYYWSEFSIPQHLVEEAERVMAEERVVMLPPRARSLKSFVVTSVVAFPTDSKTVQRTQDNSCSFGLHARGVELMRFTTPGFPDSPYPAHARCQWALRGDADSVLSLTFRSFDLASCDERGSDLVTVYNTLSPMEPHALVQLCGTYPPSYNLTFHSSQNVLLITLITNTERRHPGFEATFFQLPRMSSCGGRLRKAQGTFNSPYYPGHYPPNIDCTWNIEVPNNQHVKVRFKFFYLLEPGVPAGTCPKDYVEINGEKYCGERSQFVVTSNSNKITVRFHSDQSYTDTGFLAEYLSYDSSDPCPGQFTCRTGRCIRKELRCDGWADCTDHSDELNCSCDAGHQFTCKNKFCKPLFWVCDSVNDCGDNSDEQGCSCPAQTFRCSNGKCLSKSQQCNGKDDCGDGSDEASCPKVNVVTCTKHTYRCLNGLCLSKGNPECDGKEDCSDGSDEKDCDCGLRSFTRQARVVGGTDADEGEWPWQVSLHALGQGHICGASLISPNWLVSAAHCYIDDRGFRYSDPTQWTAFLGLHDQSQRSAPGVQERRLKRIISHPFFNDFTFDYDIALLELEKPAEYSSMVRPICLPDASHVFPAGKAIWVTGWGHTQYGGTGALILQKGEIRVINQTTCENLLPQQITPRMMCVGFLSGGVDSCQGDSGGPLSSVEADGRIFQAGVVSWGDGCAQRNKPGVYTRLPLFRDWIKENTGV

[6] = target: KLK1 (Homo sapiens, UniProt P06870); test: in vitro serine protease inhibition profile: KLK1; format: biochemical
[7] = target: KLK4 (Homo sapiens, UniProt Q9Y5K2); test: in vitro serine protease inhibition profile: KLK4; format: biochemical
[8] = target: T5, KLK8 (Homo sapiens, UniProt O60259); test: in vitro serine protease inhibition profile: KLK8; format: biochemical
T5 sequence (O60259 33-260): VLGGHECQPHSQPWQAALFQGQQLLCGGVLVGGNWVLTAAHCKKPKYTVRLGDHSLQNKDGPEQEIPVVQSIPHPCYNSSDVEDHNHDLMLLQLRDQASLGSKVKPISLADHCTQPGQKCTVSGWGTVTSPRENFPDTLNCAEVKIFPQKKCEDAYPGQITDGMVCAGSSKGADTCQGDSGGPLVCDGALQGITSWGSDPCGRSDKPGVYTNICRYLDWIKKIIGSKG

[9] = target: T6, HNE (Homo sapiens, UniProt P08246); test: in vitro serine protease inhibition profile: HNE; format: biochemical
T6 sequence (P08246 30-267): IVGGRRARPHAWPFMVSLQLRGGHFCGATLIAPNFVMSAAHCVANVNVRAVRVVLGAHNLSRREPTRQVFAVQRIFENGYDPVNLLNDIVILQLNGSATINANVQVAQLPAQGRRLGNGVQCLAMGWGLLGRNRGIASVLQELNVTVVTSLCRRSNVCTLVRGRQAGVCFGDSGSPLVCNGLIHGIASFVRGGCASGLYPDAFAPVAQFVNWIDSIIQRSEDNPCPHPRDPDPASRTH

[10] = system: post-colitis rats; test: post-colitis rat model for visceral pain, visceromotor response (VMR) to colorectal distension; conditions: for effect on VMRs (visceral pain) / effective dose in visceral pain model: post-colitis rats; for effective dose in visceral pain model: i.p.
Method: Male Sprague-Dawley rats (200-225 g; Charles River, Italy) were used in all experiments. Rats were housed at a constant room temperature (22±2° C.) and humidity (60%). The animals had unlimited access to water and food and were kept on a 12 h:12 h day-night cycle. They were allowed to acclimatize for at least 1 week before the start of the experiments.
In this set-up, a mild colitis was induced in the post-colitis group on day 0, using a TNBS-enema. The control group received an intrarectal administration with 0.9% NaCl. The presence of colitis was verified by a colonoscopy on day 3. From day 10 onwards, a colonoscopy was performed every 4 days to follow-up the healing of the colonic mucosa. When the colonic mucosa was completely healed, further experiments were performed 3 days later. […] After the VMR measurement, the animals were sacrificed.
TNBS-colitis was induced at day 0 using a TNBS-enema (4 mg TNBS, 50% ethanol). […] Control animals received 0.25 ml 0.9% NaCl intrarectally. The animals were kept in a tail-up position during 1 min and were then allowed to recover in a Trendelenburg position.
Electromyographic (EMG) electrodes were implanted into the external abdominal muscle and 3 days later, the VMR experiment was performed in conscious rats. A lubricated balloon (length 5 cm) was introduced into the colorectum of the animal and connected to a barostat (Distender Series II Barostat, G&J Electronics, Canada). The EMG electrodes were attached to a data-acquisition system and a phasic distension protocol (10-20-30-40-60 mmHg, 20 s, 4 min interval) was sent through the barostat. […] The VMR was quantified using the area under the curve (AUC) of the EMG signal during the distension (20 s) corrected for the EMG signal before the distension (20 s).
22.0. The results of the VMR experiments analyzed using a Generalized Estimating Equations (GEE) test with Least Significant Difference (LSD) post-hoc test. A p-value<0.05 was considered as being statistically significant. The graphs were made with GraphPad Prism 6.0.
Visceral sensitivity was assessed using the visceromotor responses (VMRs) to a colorectal distension, shown in the graphs below as area under the curve (AUC; y-axis; μV.20 s-1) for each distension pressure (x-axis; mmHg). Serine proteases seem to play an important role in the pathogenesis of visceral pain.

[11] = 1 mg/kg i.p., single administration

KLK4, sequence (Q9Y5K2 31-254, species assumed): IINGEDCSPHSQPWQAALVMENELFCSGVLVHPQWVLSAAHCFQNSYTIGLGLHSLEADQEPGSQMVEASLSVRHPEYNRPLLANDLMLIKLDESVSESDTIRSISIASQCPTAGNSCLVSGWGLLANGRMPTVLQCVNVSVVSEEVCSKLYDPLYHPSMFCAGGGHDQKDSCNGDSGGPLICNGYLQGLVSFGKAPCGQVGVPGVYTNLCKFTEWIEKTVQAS
T2 sequence (P00747 581-810 limits assumed, species assumed): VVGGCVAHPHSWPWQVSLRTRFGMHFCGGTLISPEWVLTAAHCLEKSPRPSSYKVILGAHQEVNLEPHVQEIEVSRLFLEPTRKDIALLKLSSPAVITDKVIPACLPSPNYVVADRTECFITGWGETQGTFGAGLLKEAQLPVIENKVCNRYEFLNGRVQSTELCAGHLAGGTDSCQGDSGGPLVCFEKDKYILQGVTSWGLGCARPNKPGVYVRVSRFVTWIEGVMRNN
T2 sequence (P00747 97-580 partner limits assumed, species assumed): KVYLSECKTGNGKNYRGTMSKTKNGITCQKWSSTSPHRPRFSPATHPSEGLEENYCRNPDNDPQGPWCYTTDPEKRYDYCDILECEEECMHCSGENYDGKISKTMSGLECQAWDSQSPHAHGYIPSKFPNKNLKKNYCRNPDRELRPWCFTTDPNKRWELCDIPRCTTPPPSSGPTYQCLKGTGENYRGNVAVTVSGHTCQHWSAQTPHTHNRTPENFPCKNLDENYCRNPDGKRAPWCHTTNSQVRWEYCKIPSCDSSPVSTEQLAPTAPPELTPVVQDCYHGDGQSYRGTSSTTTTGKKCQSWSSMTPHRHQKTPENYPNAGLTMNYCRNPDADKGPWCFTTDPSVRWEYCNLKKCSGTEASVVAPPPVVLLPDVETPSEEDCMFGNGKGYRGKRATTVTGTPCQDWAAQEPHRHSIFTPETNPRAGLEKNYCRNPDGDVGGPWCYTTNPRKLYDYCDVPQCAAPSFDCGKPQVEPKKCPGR
KLK1, sequence (P06870 25-262, species assumed): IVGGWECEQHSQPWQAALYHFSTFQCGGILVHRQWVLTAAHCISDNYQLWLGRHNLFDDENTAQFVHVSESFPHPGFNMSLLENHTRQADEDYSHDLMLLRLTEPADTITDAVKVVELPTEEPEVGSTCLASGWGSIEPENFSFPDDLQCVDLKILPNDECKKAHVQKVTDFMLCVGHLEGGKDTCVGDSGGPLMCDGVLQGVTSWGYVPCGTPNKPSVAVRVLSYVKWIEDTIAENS

Compound	IC50 [1] [nM]	IC50 [2] [nM]	IC50 [3] [nM]	IC50 [4] [nM]	IC50 [5] [nM]	IC50 [6] [nM]	IC50 [7] [nM]	IC50 [8] [nM]	IC50 [9] [nM]	effect on VMRs (visceral pain) [10, 11]	effect on VMRs (visceral pain) ([10]; 2.5 mg/kg i.p.)	effective dose in visceral pain model [10]	side effect observed ([10]; rats, 5 mg/kg)	effect on visceral sensitivity ([10]; control rats, 1 mg/kg i.p.)	effect on VMRs (visceral pain) ([10]; 0.01 mg/kg i.p., single administration 30 min before VMR)	effect on VMRs (visceral pain) ([10]; 0.1 mg/kg i.p., single administration)
COC(=O)NC(Cc1ccc(NC(=N)N)cc1)P(=O)(Oc1ccccc1)Oc1ccccc1 (stereo not drawn) [Compound 1]	4	> 2500	> 2500	329	82	> 2500	9	28	> 2500	no clear reduction of the VMRs was seen	visceral pain had completely disappeared	at least 2.5 mg/kg	sedation was observed			
CC(=O)Nc1ccc(OP(=O)(Oc2ccc(NC(C)=O)cc2)C(Cc2ccc(NC(=N)N)cc2)NC(=O)OCc2ccccc2)cc1 (stereo not drawn) [Compound 4]	2	257	> 2500	120	3	> 2500	2	2	> 2500	visceral pain had completely disappeared		0.1 mg/kg		no significant effect on visceral sensitivity	no significant effect	significantly lowered VMRs
